The compounds below were run against recombinant human cathepsin S (Homo sapiens, UniProt P25774) (assay: in vitro cathepsin S assay). Conditions: substrate Z-Leu-Leu-4-methylcoumaryl-7-amide, pH 7.0, ambient temperature, read-out: IC50 for the inhibition of human cathepsin S.
Type: biochemical
Procedure: The in vitro assay is carried out in clear, flat-bottomed, 96-well microtiter plates (Greiner GmbH, Germany) at ambient temperature using recombinant human cathepsin S. Inhibition of human cathepsin S is assayed at a constant enzyme and various substrate concentrations (substrate is Z-Leu-Leu-4-methylcoumaryl-7-amide (Bachem (Switzerland)) in 100 parts 0.2M sodium phosphate, pH 7.0, containing 2 mM EDTA, 2 parts 1% Triton X-100, 10 parts 20 mM dithlothreitol (DTT) and 58 parts distilled water. The assay is started by adding the enzyme solution (13 times higher concentration of final concentration of recombinant human Cathepsin S) to the reaction mixture containing various concentrations of the corresponding substrate and the compound. Substrate concentrations between 3.4 and 17 μM are used. The recombinant human Cathepsin S is used at a final concentration of 0.04 nM. Test compounds are used at concentrations between 0.4 and 2 times the determined IC50 of the compound at the enzyme. The relative fluorescence is continuously measured for 30 minutes and the initial velocity is obtained from each progress curve. […]

recombinant human cathepsin S, sequence (P25774 115-331): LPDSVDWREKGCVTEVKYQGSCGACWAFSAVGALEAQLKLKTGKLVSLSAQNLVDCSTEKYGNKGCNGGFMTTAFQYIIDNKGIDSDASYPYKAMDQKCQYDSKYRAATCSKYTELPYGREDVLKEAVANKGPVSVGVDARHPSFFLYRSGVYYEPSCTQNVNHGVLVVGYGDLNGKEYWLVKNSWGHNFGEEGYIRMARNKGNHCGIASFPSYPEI

| IC50 | Compound |
| --- | --- |
| 33 nM | N#Cc1ncc2cc(CN3CCCC3)n(CCC3CCCCC3)c2n1 [Example 278] |
| 48 nM | CC(=O)N1CCC2(CCN(Cc3cc4cnc(C#N)nc4n3CCC3CCCCC3)CC2)C1 [Example 335, 6-(2-Acetyl-2,8-diaza-spiro[4,5]dec-8-ylmethyl)-7-(2-cyclohexyl-ethyl)-7H-pyrrolo[2,3-d]pyrimidine-2-carbonitrile] |

The next lines start with the compound.

| Compound | IC50 |
| --- | --- |
| CCCNC(=O)c1ccc(OCc2cc3cnc(C#N)nc3n2CCC2CCCCC2)c(Cl)c1 [Example 54] | 32 nM |
| N#Cc1ncc2cc(Cc3ccc(F)c(F)c3)n(CCc3ccc(Cl)cc3)c2n1 [Example 169] | 30 nM |
| CC(C)(C)CCn1c(Cc2ccc(CO)cc2)cc2cnc(C#N)nc21 [Example 175] | 5.1 nM |
| N#Cc1ncc2cc(Cc3ccc(N4CCCC4=O)cc3)n(CCC3CCCCC3)c2n1 [Example 179, 7-(2-Cyclohexyl-ethyl)-6-[4-(2-oxo-pyrrolidin-1-yl)-benzyl]-7H-pyrrolo[2,3-d]pyrimidine-2-carbonitrile] | 35 nM |
| CC(C)CCn1c(Cc2cccs2)cc2cnc(C#N)nc21 [Example 193] | 4.1 nM |

From patent publication US20060247251A1, “2-Cyanopyrrolopyrimidines and pharmaceutical uses thereof” (priority 2003, published 2006)
